Measurements: ChEMBL document CHEMBL3046476, “Qsar for Acetylcholinesterase and Butyrylcholinesterase Inhibition by Cardiovascular Drugs and Benzodiazepines” (Med Chem Res, 2005)
Where a name gives a salt, the structure may show the parent alone. Active and inactive are the calls of the source. The calls are words filed in the database; no cut-off is given here.

Assays:
[1] = target: Cholinesterase (Equus caballus) (UniProt P81908); assay: Reversible mixed-type inhibition of Equus caballus (horse) serum butyrylcholinesterase (BChE) assessed as inhibition of BTCh hydrolysis by Ellman method
Cholinesterase (Equus caballus), sequence (P81908 whole entry): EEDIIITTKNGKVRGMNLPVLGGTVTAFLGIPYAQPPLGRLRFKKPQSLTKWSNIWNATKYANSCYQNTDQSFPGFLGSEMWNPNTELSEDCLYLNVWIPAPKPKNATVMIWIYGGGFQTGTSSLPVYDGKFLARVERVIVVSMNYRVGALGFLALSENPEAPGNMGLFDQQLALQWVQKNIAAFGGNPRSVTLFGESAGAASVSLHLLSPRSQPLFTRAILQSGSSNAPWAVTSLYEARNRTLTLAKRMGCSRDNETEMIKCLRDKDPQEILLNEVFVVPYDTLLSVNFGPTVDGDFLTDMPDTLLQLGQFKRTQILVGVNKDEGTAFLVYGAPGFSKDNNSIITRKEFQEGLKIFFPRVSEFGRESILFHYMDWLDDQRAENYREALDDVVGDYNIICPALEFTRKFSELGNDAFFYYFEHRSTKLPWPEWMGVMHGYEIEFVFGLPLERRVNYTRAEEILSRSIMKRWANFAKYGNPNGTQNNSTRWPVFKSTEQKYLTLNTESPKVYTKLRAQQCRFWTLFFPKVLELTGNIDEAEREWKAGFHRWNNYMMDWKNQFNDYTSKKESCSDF

Acetylcholinesterase = Acetylcholinesterase (Electrophorus electricus, UniProt O42275); assay: Inhibition of Electrophorus electricus (electric eel) acetylcholinesterase (AChE) assessed as inhibition of ATCh hydrolysis by Ellman method
Acetylcholinesterase, sequence (O42275 whole entry): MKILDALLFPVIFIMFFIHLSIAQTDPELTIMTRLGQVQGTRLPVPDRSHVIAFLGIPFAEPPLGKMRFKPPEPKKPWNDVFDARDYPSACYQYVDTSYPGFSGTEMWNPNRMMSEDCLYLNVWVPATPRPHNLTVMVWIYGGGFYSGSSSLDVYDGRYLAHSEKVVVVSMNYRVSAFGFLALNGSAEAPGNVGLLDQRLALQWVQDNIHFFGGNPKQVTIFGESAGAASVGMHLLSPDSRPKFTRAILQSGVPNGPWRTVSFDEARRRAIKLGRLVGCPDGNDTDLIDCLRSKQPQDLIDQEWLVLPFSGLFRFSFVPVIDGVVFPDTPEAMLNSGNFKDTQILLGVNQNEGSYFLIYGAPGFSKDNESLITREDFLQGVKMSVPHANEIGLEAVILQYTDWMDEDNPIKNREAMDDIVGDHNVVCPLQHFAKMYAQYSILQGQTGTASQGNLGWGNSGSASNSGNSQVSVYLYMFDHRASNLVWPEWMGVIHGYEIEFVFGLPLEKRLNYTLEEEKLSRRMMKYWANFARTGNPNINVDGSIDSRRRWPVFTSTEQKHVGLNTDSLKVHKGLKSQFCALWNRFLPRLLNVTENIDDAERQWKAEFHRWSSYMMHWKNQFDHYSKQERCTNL

Cholinesterase = Cholinesterase (Equus caballus, UniProt P81908); assay: Inhibition of Equus caballus (horse) serum butyrylcholinesterase (BChE) assessed as inhibition of BTCh hydrolysis by Ellman method
Cholinesterase, sequence (P81908 whole entry): as the sequence (P81908 whole entry) above

Row | Structure (SMILES) | inhibition [1] | Ki (Acetylcholinesterase; read-out: Ki) | Ki (Acetylcholinesterase; read-out: pKi (converted)) | Ki (Cholinesterase; read-out: Ki) | Ki (Cholinesterase; read-out: pKi (converted))
1 | CCOC(=O)C1=C(COCCN)NC(C)=C(C(=O)OC)C1c1ccccc1Cl (centres undefined) | Active | – | – | – | –
2 | CNC1=Nc2ccc(Cl)cc2C(c2ccccc2)=[N+]([O-])C1 | Active | – | – | – | –
3 | CN1C(=O)CN=C(c2ccccc2)c2cc(Cl)ccc21 [DIAZEPAM] | Active | 13 µM | 251 µM | – | –
4 | NNc1nncc2ccccc12 [HYDRALAZINE HYDROCHLORIDE] | Active | 7 µM | 251 µM | 1.9 µM | 5.01 µM
5 | CC[C@H](C)C(=O)O[C@H]1C[C@@H](C)C=C2C=C[C@H](C)[C@H](CC[C@@H]3C[C@@H](O)CC(=O)O3)[C@H]21 [LOVASTATIN] | Active | 2.7 µM | 251 µM | 1.1 µM | 5.01 µM
6 | COC(=O)C1=C(C)NC(C)=C(C(=O)OC)C1c1ccccc1[N+](=O)[O-] [NIFEDIPINE] | Active | 4 µM | 251 µM | 1.2 µM | 5.01 µM
7 | CCC(C)(C)C(=O)O[C@H]1C[C@@H](C)C=C2C=C[C@H](C)[C@H](CC[C@@H]3C[C@@H](O)CC(=O)O3)[C@H]21 [SIMVASTATIN] | – | 1.8 µM | 251 µM | 0.75 µM | 5.01 µM
